Reference: patent US5977065A, “Bacterial nitroreductase for the reduction of CB1954 and analogues thereof to a cytotoxic form” (Cancer Research Campaign Technology Limited, priority 1991, dated 1999)

Key:
E. coli nitroreductase [1] = target: T1, E. coli nitroreductase (Escherichia coli, UniProt P38489); assay: Cofactor ability for the reduction of CB 1954 (FIG. 1); type: biochemical; conditions: compared with NADH; CB 1954 100 μM, reduced cofactor 500 μM
T1 construct: endogenous in cells; host or cells: E. coli B cell paste; endogenous enzyme purified by Phenyl-Sepharose and Q-Sepharose chromatography, not recombinant
Experimental: (§1) At various times aliquots (10 μl) were injected onto a Partisil SCX (240×4.7 mm) HPLC column and eluted isocratically (2 ml/min) with 100 mM NaH2 PO4. The eluate was continuously monitored for absorption at 320, 260 and 360 nm and the concentration of CB 1954 calculated by integration of the peak corresponding to this compound on the HPLC trace.
(§2) The ability of the nitroreductase enzyme to be able to use a synthetic cofactor in place of NADH or NADPH for the reduction of CB 1954 is shown in FIG. 1. […] Therefore 1,4-dihydro-nicotinic acid riboside is a selective cofactor for the E. coli nitroreductase enzyme and cannot be used by mammalian DT diaphorase.

Walker DT diaphorase = target: T2, Walker DT diaphorase (Rattus norvegicus, UniProt P05982); assay: as above; type: biochemical; conditions: CB 1954 100 μM, reduced cofactor 500 μM
T2 construct: the enzyme isolated from the Walker tumour, EC.1.6.99.2; from tissue; host or cells: Walker tumour (Walker cell)
T2 sequence (P05982 2-274 limits assumed): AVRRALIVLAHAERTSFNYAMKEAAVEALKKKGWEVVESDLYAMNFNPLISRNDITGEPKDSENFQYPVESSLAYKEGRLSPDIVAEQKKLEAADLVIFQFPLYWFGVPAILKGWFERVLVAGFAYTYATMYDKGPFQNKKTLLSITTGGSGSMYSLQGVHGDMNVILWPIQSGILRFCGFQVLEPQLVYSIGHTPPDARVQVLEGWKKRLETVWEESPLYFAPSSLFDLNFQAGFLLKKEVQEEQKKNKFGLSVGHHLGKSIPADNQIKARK
Experimental: as §1, §2

MAWI cells = assay: Survival (colony forming ability) of MAWI cells with enzyme-activated prodrugs (Table 7); type: cell-based, human
Experimental: (§3) The effect of enzyme-activated prodrugs on the survival of MAWI
(§4) cells. 1 ml volumes of MAWI cells (2 × 10^5 /ml) were
(§5) with 50 μM prodrug, 500 μM NADH, and 10 μg/ml the enzyme of
(§6) Example 1. After a 2 hour incubation at 37° C., the cells were
(§7) harvested and assayed for their colony forming ability, and the
(§8) supernatant assayed for the concentration of remaining prodrug

E. coli B nitroreductase [2] = target: T3, E. coli B nitroreductase (Escherichia coli, UniProt P38489); assay: % drug reduction in the MAWI incubations, remaining prodrug by HPLC (Table 7); type: biochemical
T3 construct: endogenous in cells; host or cells: E. coli B cell paste; endogenous enzyme purified by Phenyl-Sepharose and Q-Sepharose chromatography, not recombinant
Experimental: as §3, §4, §5, §6, §7, §8

V79 cells [3] = assay: Survival (colony forming ability) of V79 cells with enzyme-activated prodrugs (Table 8); type: cell-based
Experimental: (§9) Generation of cytotoxicity by the action of the E. coli nitroreductase of Example 1 upon the prodrugs 4-[bis(2-chloroethyl)amino]phenylcarbamic acid 4'-nitrobenzyl ester (I where R^1 NH2 =III) and N-4-nitrobenzyloxy-carbonyl-actinomycin D (V) are shown in Table 8.
(§10) The effect of enzyme-activated prodrugs on the survival of V79
(§11) cells. 1 ml volumes of V79 cells (2 × 10^5 /ml) were incubated
(§12) with prodrug, 500 μM NADH, and 10 μg/ml enzyme. After a 2 hour
(§13) incubation at 37° C., the cells were harvested and assayed for
(§14) their colony forming ability, and the supernatant assayed for
(§15) the concentration of remaining prodrug by HPLC.

E. coli nitroreductase [4] = target: T1, E. coli nitroreductase; assay: % drug reduction in the V79 incubations, remaining prodrug by HPLC (Table 8); type: biochemical; conditions: NR + prodrug + NADH, prodrug concentration not given
Experimental: as §9, §10, §11, §12, §13, §14, §15

E. coli nitroreductase [5] = target: T1, E. coli nitroreductase; assay: Enzymatic reduction of CB 1954 followed by HPLC; type: biochemical, E. coli B
Experimental: Enzymatic reduction of CB 1954. CB 1954 (100 μM and also containing [U-^3 H] C.B 1954 at 1.6×10^5 dpm per nmole), NADH or NAD(P)H (500 μM) were incubated with the active enzyme obtained as described in Example 1, (generally 2 μg/ml E. coli nitroreductase or 35 μg/ml Walker NAD(P)H dehydrogenase (quinone) EC 1.6.99.2) in 10 mM sodium phosphate buffer (pH 7) under either air or helium. At various times aliquots (10 μl) were injected onto a Partisphere SCX (110×4.7 mm) HPLC column and eluted isocratically (2 ml/min) with 100 mM NaH2 PO4.
(§16) The eluate was continuously monitored for adsorption at 310, 260 and 360 nm and the spectra of eluting components recorded using a diode-array detector. Samples (0.5 ml) were collected and the tritium activity of each determined by liquid scintillation counting. This separation system could resolve all the expected reduction products.
(§17) To confirm further the identity of any reduction products, the above reduction mixture was also injected onto an ODS-5 reverse phase HPLC column and eluted (1 ml/min) with a methanol gradient (0-30% linear over 30 min, 30-100% linear over 10 min.) in 0.1 M sodium phosphate buffer (pH 7).

[6] = target: T4, Walker NAD(P)H dehydrogenase (quinone) EC 1.6.99.2 (Rattus norvegicus, UniProt P05982); assay: Enzymatic reduction of CB 1954 followed by HPLC; type: biochemical; conditions: reduction of 50 μM of CB 1954
T4 construct: the enzyme isolated from the Walker tumour, EC.1.6.99.2; from tissue; host or cells: Walker tumour (Walker cell)
T4 sequence (P05982 2-274 limits assumed): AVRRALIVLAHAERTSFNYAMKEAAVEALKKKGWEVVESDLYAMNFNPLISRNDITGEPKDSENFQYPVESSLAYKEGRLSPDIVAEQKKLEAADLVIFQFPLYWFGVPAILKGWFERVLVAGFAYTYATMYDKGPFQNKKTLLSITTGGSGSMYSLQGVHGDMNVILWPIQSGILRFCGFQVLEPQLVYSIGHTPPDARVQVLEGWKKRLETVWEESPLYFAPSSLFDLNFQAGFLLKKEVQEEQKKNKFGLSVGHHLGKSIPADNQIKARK
Experimental: Enzymatic reduction of CB 1954. […] At various times aliquots (10 μl) were injected onto a Partisphere SCX (110×4.7 mm) HPLC column and eluted isocratically (2 ml/min) with 100 mM NaH2 PO4.
as §16, §17

V79 cells [7] = assay: Survival (colony-forming ability) of V79 cells treated with CB 1954 in the presence of E. coli B nitroreductase (Table 4); type: cell-based, Hamster
Experimental: (§18) E. coli B nitroreductase. All treatments were for 2 hours at 37°
(§19) cells were then plated out for their resulting colony-forming ability.
(§20) nitroreductase concentration was 2 μg/ml and NADH was used as a […]

E. coli B nitroreductase [8] = target: T3, E. coli B nitroreductase; assay: % drug reduction in the V79 incubations (Table 4); type: biochemical
Experimental: The effect of CB 1954 on the survival of V79 cells in the presence of the
as §18, §19, §20

E. coli nitroreductase [9] = target: T1, E. coli nitroreductase; assay: Substrate specificity: relative rate of NADH oxidation by HPLC (Table 5); type: biochemical; conditions: relative to CB 1954; 37° C. in air, NADH 500 μM, substrate 100 μM
Experimental: The ability of the E. coli nitroreductase of the invention to reduce nitro-compounds other than CB 1954 was determined by HPLC by following the decrease in the peak area of NADH resulting from its oxidation. The experiments were carried out as above but the aliquots were injected onto a Partisphere SAX (110×4.7 mm) HPLC column and eluted isocratically (1 ml/min) with 75 mM NaH2 PO4.
The relative rates of reduction of various nitrobenzamides and
nitrobenzenes with E. coli nitroreductase enzyme. Reduction
rates were determined by the resulting oxidation of NADH. All
reactions were carried out at 37° C. in air, with NADH (500
electron donor, at an initial substrate concentration of 100 μM.

E. coli B nitroreductase [10] = target: T3, E. coli B nitroreductase; assay: Enzyme kinetic and inhibition studies; type: biochemical
Experimental: Protein concentration was determined using the a conventional protein assay (Bio-Rad) calibrated against bovine serum albumin.

[11] = target: T4, Walker NAD(P)H dehydrogenase (quinone) EC 1.6.99.2; assay: Enzyme kinetic studies; type: biochemical
Experimental: (§21) Quinone reductase activities were assayed by a spectrophotometric method using menadione as a substrate and cytochrome c as a terminal electron acceptor as described in Knox et al, Biochem. Pharmacol., 37, 4671-4677, 1988. Initial rates of reaction were determined by linear regression analysis (r>0.995) and kinetic parameters determined from the resulting plots as described by Roberts et al, Biochem. Pharmacol. 38, 4137-4143, 1989. Protein concentration was determined using the a conventional protein assay (Bio-Rad) calibrated against bovine serum albumin.
(§22) Kinetic parameters for the E. coli nitroreductase and Walker NAD(P)H, dehydrogenase (quinone) EC. […] The absolute rates of reduction of CB 1954 (i.e. under saturating conditions) by the two enzymes is their kcat values and this is 90 fold higher for the E. coli nitroreductase.

CC1=CC(=O)c2ccccc2C1=O = assay: Enzyme kinetic and inhibition studies; type: biochemical, E. coli B
[12] = system: NC(=O)c1cc(N2CC2)c([N+](=O)[O-])cc1[N+](=O)[O-]; assay: Enzyme kinetic and inhibition studies; type: biochemical, E. coli B
Enzyme kinetic studies [13] = substrate: CC1=CC(=O)c2ccccc2C1=O; assay: Enzyme kinetic studies; type: biochemical
Experimental: as §21, §22

Enzyme kinetic studies [14] = substrate: NC(=O)c1cc(N2CC2)c([N+](=O)[O-])cc1[N+](=O)[O-]; assay: Enzyme kinetic studies; type: biochemical
Experimental: as §21, §22

[15] = NR 10 μg/ml + 50 μM prodrug + 500 μM NADH
[16] = NR 2 μg/ml + 50 μM CB 1954, no NADH
[17] = NR 2 μg/ml + CB 1954 + 500 μM NADH

T1 sequence (P38489 whole entry): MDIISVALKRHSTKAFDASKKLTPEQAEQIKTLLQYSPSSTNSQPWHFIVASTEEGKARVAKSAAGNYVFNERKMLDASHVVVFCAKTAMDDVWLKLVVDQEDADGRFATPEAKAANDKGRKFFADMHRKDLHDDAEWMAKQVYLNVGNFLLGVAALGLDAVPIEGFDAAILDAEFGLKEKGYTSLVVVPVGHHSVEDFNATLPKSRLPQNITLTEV
T3 sequence (P38489 whole entry): as above

O=C(O)C1=CN([C@@H]2O[C@H](CO)[C@@H](O)[C@H]2O)C=CC1 [1,4-dihydro-nicotinic acid riboside]
ability to act as a cofactor for the reduction of CB 1954 (E. coli nitroreductase [1]): equal efficiency
ability to act as a cofactor for the reduction of CB 1954 (Walker DT diaphorase): cannot utilise

CN(C)C(=O)c1cc(N2CC2)c([N+](=O)[O-])cc1[N+](=O)[O-] [CB 10-107]
% SURVIVAL (MAWI cells; 50 μM prodrug alone, 2 hour 37° C.): 85.6%
% SURVIVAL (MAWI cells; NADH + prodrug, no enzyme): 87.9%
% SURVIVAL (MAWI cells; [15]): 5.0%
% DRUG REDUCTION (E. coli B nitroreductase [2]; 50 μM prodrug alone): < 1.0%
% DRUG REDUCTION (E. coli B nitroreductase [2]; NADH + prodrug, no enzyme): < 1.0%
% DRUG REDUCTION (E. coli B nitroreductase [2]; [15]): 45%
% SURVIVAL (V79 cells [3]; NR + prodrug + NADH, prodrug concentration not given): 5.0%
% DRUG REDUCTION (E. coli nitroreductase [4]): 45%

NC(=O)c1cc(N2CC2)c([N+](=O)[O-])cc1[N+](=O)[O-] [CB 1954, 5-(aziridin-1-yl)-2,4-dinitrobenzamide]
rate of reduction of CB 1954 or product formation (E. coli nitroreductase [5]; co-factor NAD(P)H or NADH, under helium): the same
nitroreductase more active per mg protein than NAD(P)H dehydrogenase (quinone), initial rates of 4-hydroxylamine formation (E. coli nitroreductase [5]; standard conditions): 31.2 fold
nitroreductase more active than NAD(P)H dehydrogenase (quinone) by CB 1954 reduction (E. coli nitroreductase [5]; standard conditions): 62 fold
4-hydroxylamine formed (E. coli nitroreductase [5]; when 67 μM of CB 1954 was reduced): 33 µM
4-hydroxylamine formed [6]: 50 µM
% SURVIVAL (V79 cells [7]; 50 μM CB 1954, 2 hours 37° C.): 100%
% SURVIVAL (V79 cells [7]; NADH + CB 1954, no enzyme, 2 hours 37° C.): 41%
% SURVIVAL (V79 cells [7]; [16]): 99%
% SURVIVAL (V79 cells [7]; [17]): 0.024%
% DRUG REDUCTION (E. coli B nitroreductase [8]; 50 μM CB 1954 alone): < 1.0%
% DRUG REDUCTION (E. coli B nitroreductase [8]; NADH + CB 1954, no enzyme): < 1.0%
% DRUG REDUCTION (E. coli B nitroreductase [8]; [16]): < 1.0%
% DRUG REDUCTION (E. coli B nitroreductase [8]; [17]): 72%
RELATIVE RATE OF NADH OXIDATION NR (E. coli nitroreductase [9]): 1.0
kcat for CB 1954 reduction higher for the E. coli nitroreductase than Walker enzyme (E. coli B nitroreductase [10]; saturating conditions): 90 fold

NC(=O)C1=CN([C@@H]2O[C@H](COP(=O)(O)OP(=O)(O)OC[C@H]3O[C@@H](n4cnc5c(N)ncnc54)[C@H](O)[C@@H]3O)[C@@H](O)[C@H]2O)C=CC1 [NADH]
% SURVIVAL (V79 cells [7]; 500 μM NADH): 100%
Km of the nitroreductase for NADH less than the Walker enzyme (E. coli B nitroreductase [10]): about 10 fold
Km [11]: 75 µM
% SURVIVAL (MAWI cells; 500 μM NADH alone): 100%
% SURVIVAL (V79 cells [3]; 500 μM NADH alone): 100%

E. coli B nitroreductase (Escherichia coli K-12)
Km (CC1=CC(=O)c2ccccc2C1=O): 80 µM
Km [12]: 862 ± 145 µM

B1: Walker NAD(P)H dehydrogenase (quinone) EC. 1.6.99.2 (Rattus norvegicus) (protein)
chain: AVRRALIVLAHAERTSFNYAMKEAAVEALKKKGWEVVESDLYAMNFNPLISRNDITGEPKDSENFQYPVESSLAYKEGRLSPDIVAEQKKLEAADLVIFQFPLYWFGVPAILKGWFERVLVAGFAYTYATMYDKGPFQNKKTLLSITTGGSGSMYSLQGVHGDMNVILWPIQSGILRFCGFQVLEPQLVYSIGHTPPDARVQVLEGWKKRLETVWEESPLYFAPSSLFDLNFQAGFLLKKEVQEEQKKNKFGLSVGHHLGKSIPADNQIKARK
notes: the enzyme isolated from the Walker tumour, EC.1.6.99.2; from tissue; host or cells: Walker tumour (Walker cell)
Km (Enzyme kinetic studies [13]): 1.3 µM
Km (Enzyme kinetic studies [14]): 826 ± 46 µM
